Reference: patent publication US12365667B2, “Sulfone pyridine alkyl amide-substituted heteroaryl compounds” (BRISTOL-MYERS SQUIBB COMPANY, priority 2017, dated 2025)

The compounds below were run on IFNα-induced STAT phosphorylation (pSTAT5) in human whole blood (assay: IFNα-Induced STAT Phosphorylation in Human Whole Blood). Details: 1 h incubation with compound, 1000 U/mL recombinant human IFNα A/D for 15 min, pSTAT5 in CD3 positive population, read-out: IFNα-Induced Stat Phosph. (IC50).
Format: cell-based

| SMILES | IC50 [nM] |
| --- | --- |
| CNC(=O)c1nnc(Nc2cc(C)nc(C)n2)cc1Nc1ncccc1S(C)(=O)=O [Example 98] | 49 |
| CNC(=O)c1nnc(NC(=O)[C@H]2C[C@@H]2C)cc1Nc1ncccc1S(C)(=O)=O [Example 49] | 58 |
| CNC(=O)c1nnc(Nc2cc(C)n(C)n2)cc1Nc1ncccc1S(C)(=O)=O [Example 17] | 18 |
| CNC(=O)c1nnc(Nc2cc(COC)ccn2)cc1Nc1ncccc1S(C)(=O)=O [Example 96] | 4 |
| [2H]C([2H])([2H])NC(=O)c1nnc(NC(=O)[C@H]2CC23CC3)cc1Nc1ncccc1S(C)(=O)=O [Example 253, (S)—N-(methyl-d3)-4-((3-(methylsulfonyl)pyridin-2-yl)amino)-6-(spiro[2.2]pentane-1-carboxamido)pyridazine-3-carboxamide] | 47 |
| CNC(=O)c1nnc(NC(=O)C=C(C)C)cc1Nc1ncccc1S(C)(=O)=O [Example 120] | 62 |
| CNC(=O)c1nnc(Nc2ccc(C3CC3)nn2)cc1Nc1ncccc1S(C)(=O)=O [Example 15] | 13 |
| CNC(=O)c1nnc(Nc2ccnc(OC)n2)cc1Nc1ncccc1S(C)(=O)=O [Example 21] | 37 |
| CNC(=O)c1nnc(NC(=O)C2CC2)cc1Nc1nc(OC)ccc1S(C)(=O)=O [Example 200] | 198 |
| CNC(=O)c1nnc(Nc2cc(C(F)(F)F)c(C(C)(C)O)cn2)cc1Nc1ncccc1S(C)(=O)=O [Example 31] | 31 |
| CNC(=O)c1nnc(Nc2ccc(C(C)(C)NC(=O)OC(C)C)cn2)cc1Nc1ncccc1S(C)(=O)=O [Example 78] | 40 |
| Cn1ccc(Nc2cc(Nc3ncccc3S(C)(=O)=O)c(C(N)=O)nn2)n1 [compound 214] | 46 |
| CCCCNC(=O)Nc1cc(Nc2nc(C)ccc2S(C)(=O)=O)c(C(=O)NC)nn1 [Example 193] | 165 |
| CNC(=O)c1nnc(Nc2ccccn2)cc1Nc1ncccc1S(C)(=O)=O [Example 160] | 11 |
| CNC(=O)c1nnc(Nc2ccn3nccc3n2)cc1Nc1nc(C)ccc1S(C)(=O)=O [Example 195] | 211 |
| CCC(O)(CC)c1cnc(Nc2cc(Nc3ncccc3S(C)(=O)=O)c(C(=O)NC)nn2)cc1Cl [Example 147] | 231 |
| CNC(=O)c1nnc(Nc2cccc(C(F)(F)F)n2)cc1Nc1ncccc1S(C)(=O)=O [Example 113] | 88 |
| CNC(=O)c1cnc(Nc2cc(C#N)c(C)cn2)cc1Nc1ncccc1S(C)(=O)=O [Example 230] | 22 |
| CNC(=O)c1nnc(Nc2cnn(C)n2)cc1Nc1ncccc1S(C)(=O)=O [Example 51] | 29 |
| CNC(=O)c1nnc(Nc2cnc(COC)cn2)cc1Nc1ncccc1S(C)(=O)=O [Example 42] | 15 |
| CNC(=O)c1nnc(Nc2cccc(C)n2)cc1Nc1ncccc1S(C)(=O)=O [Example 82] | 37 |
| CCOc1cc(Nc2cc(Nc3ncccc3S(C)(=O)=O)c(C(=O)NC)nn2)ncc1C(=O)NC1CC1 [Example 148] | 408 |
| CNC(=O)c1nnc(NC(=O)C2CCC2)cc1Nc1ncccc1S(C)(=O)=O [Example 9] | 77 |
| CNC(=O)c1nnc(Nc2ccc(C(C)(C)NC(C)=O)cn2)cc1Nc1ncccc1S(C)(=O)=O [Example 25] | 15 |

The remaining lines, values ahead:

| IC50 [nM] | SMILES |
| --- | --- |
| 2230 | CNC(=O)c1nnc(Nc2ccc(-c3c(F)cccc3F)nn2)cc1Nc1nc(F)ccc1S(C)(=O)=O [Example 182] |
| 334 | CNC(=O)c1nnc(Nc2cccc(-c3ccccc3)n2)cc1Nc1ncccc1S(C)(=O)=O [Example 117] |
| 11 | CNC(=O)c1nnc(Nc2ccc(C)nn2)cc1Nc1ncccc1S(C)(=O)=O [Example 85] |
| 132 | CCC(=O)Nc1cc(Nc2nc(C)ccc2S(C)(=O)=O)c(C(=O)NC)nn1 [Example 186] |
| 90 | CNC(=O)c1nnc(Nc2cc(N3CCC3)ncn2)cc1Nc1ncccc1S(C)(=O)=O [Example 35] |
| 18 | CNC(=O)c1nnc(Nc2ccnc(C3CC3)n2)cc1Nc1ncccc1S(C)(=O)=O [Example 40] |
| 47 | CNC(=O)c1nnc(Nc2cc(C(F)(F)F)n(C)n2)cc1Nc1ncccc1S(C)(=O)=O [Example 88] |
| 18 | CNC(=O)c1nnc(Nc2cn(C3CC3)nn2)cc1Nc1ncccc1S(C)(=O)=O [Example 56] |
| 20 | CNC(=O)c1nnc(Nc2ccc(N3CCOCC3)nn2)cc1Nc1ncccc1S(C)(=O)=O [Example 110] |
| 1100 | CNC(=O)c1nnc(Nc2cc(C(C)(C)NC(C)=O)ccn2)cc1Nc1ncccc1S(C)(=O)=O [Example 70] |
| 61 | CNC(=O)c1nnc(Nc2ccc(-n3cccc(C(F)(F)F)c3=O)cn2)cc1Nc1nc(C)ccc1S(C)(=O)=O [Example 190] |
| 466 | CNC(=O)c1nnc(Nc2ccc(OC)nn2)cc1Nc1ncccc1[S+](C)[O-] (stereo not shown) [Example 255] |
| 42 | CNC(=O)c1nnc(Nc2cc(COC)ncn2)cc1Nc1ncccc1S(C)(=O)=O [Example 84] |
| 579 | CNC(=O)c1nnc(Nc2ccn(C)n2)cc1Nc1nc(OC)ccc1S(C)(=O)=O [Example 204] |
| 88 | CNC(=O)c1nnc(Nc2cc(C(F)(F)F)ncn2)cc1Nc1ncccc1S(C)(=O)=O [Example 27] |
| 13 | CNC(=O)c1nnc(Nc2ccc(N3CCOCC3)cn2)cc1Nc1nc(C)ccc1S(C)(=O)=O [Example 192] |
| 193 | CNC(=O)c1nnc(Nc2ccc(C(C)(C)NC(=O)CN)nn2)cc1Nc1ncccc1S(C)(=O)=O [Example 65] |

| IC50 [nM] | SMILES |
| --- | --- |
| 10 | CNC(=O)c1nnc(Nc2ccc(C(C)(C)C)nn2)cc1Nc1ncccc1S(C)(=O)=O [Example 245, 6-((6-(tert-butyl)pyridazinyl-3-yl)amino)-N-(methyl-d3)-4-((3-(methylsulfonyl)pyridin-2-yl)amino)pyridazine-3-carboxamide] |
| 7 | CNC(=O)c1nnc(Nc2cc(COC)ccn2)cc1Nc1ncccc1S(C)(=O)=O [Example 156] |
| 57 | CNC(=O)c1nnc(Nc2cnc(OC)cn2)cc1Nc1ncccc1S(C)(=O)=O [Example 80] |
| 263 | CNC(=O)c1nnc(Nc2ccc(-c3c(F)cccc3F)nn2)cc1Nc1nc(C)ccc1S(C)(=O)=O [Example 184] |
| 59 | CCCn1cc(Nc2cc(Nc3ncccc3S(C)(=O)=O)c(C(=O)NC)nn2)nn1 [Example 57] |
| 219 | CNC(=O)c1nnc(Nc2cc(C3CC3)c(C#N)cn2)cc1Nc1ncccc1S(C)(=O)=O [Example 59] |
| 2450 | CNC(=O)c1cnc(Nc2cccc(-c3ccccc3)n2)cc1Nc1ncccc1S(C)(=O)=O [Example 238] |
| 23 | CNC(=O)c1nnc(Nc2cc(C3CC3)nc(C)n2)cc1Nc1ncccc1S(C)(=O)=O [Example 165] |
| 12 | CNC(=O)c1nnc(Nc2ccc(N3CCOCC3=O)cn2)cc1Nc1nc(C)ccc1S(C)(=O)=O [Example 196] |
| 417 | CNC(=O)c1nnc(Nc2cc(F)c(F)cn2)cc1Nc1ncccc1S(C)(=O)=O [Example 87] |
| 272 | CNC(=O)c1nnc(NC(=O)C2CC(F)C2)cc1Nc1ncccc1S(C)(=O)=O (single isomer, unassigned) [Example 125] |
| 14 | CNC(=O)c1nnc(NC(=O)[C@@H]2C[C@@H]2F)cc1Nc1ncccc1S(C)(=O)=O [Example 44] |
| 79 | CNC(=O)c1nnc(Nc2ccc(OCCOC)nn2)cc1Nc1ncccc1S(C)(=O)=O [Example 64] |
| 141 | CCOc1cc(Nc2cc(Nc3ncccc3S(C)(=O)=O)c(C(=O)NC)nn2)ncc1C(C)(C)O [Example 149] |
| 142 | CNC(=O)c1nnc(NC(=O)OC)cc1Nc1ncccc1S(C)(=O)=O [Example 112] |
| 360 | CNC(=O)c1cnc(Nc2cc(C(F)(F)F)c(C#N)cn2)cc1Nc1ncccc1S(C)(=O)=O [Example 231] |

Same assay, conditions: Homo sapiens, 1 h incubation with compound, 1000 U/mL recombinant human IFNα A/D for 15 min, pSTAT5 in CD3 positive population, read-out: IFNα-Induced Stat Phosph. (IC50)

| SMILES | IC50 [nM] |
| --- | --- |
| [2H]C([2H])([2H])NC(=O)c1nnc(Nc2ccc(C(C)(C)OC(C)=O)cn2)cc1Nc1ncccc1S(C)(=O)=O [Example 171, 2-(6-((6-((methyl-d3)carbamoyl)-5-((3-(methylsulfonyl)pyridin-2-yl)amino)pyridazin-3-yl)amino)pyridin-3-yl)propan-2-yl acetate] | 9 |
| [2H]C([2H])([2H])NC(=O)c1nnc(NC(C)=O)cc1Nc1ncccc1S(C)(=O)=O [Example 163, 6-acetamido-N-trideuteromethyl-4-((3-(methylsulfonyl)pyridin-2-yl)amino)pyridazine-3-carboxamide] | 95 |

Further lines, results first:

| IC50 [nM] | SMILES |
| --- | --- |
| 648 | [2H]C([2H])([2H])NC(=O)c1nnc(NC(=O)C2CC(F)(F)C2)cc1Nc1ncccc1S(C)(=O)=O [Example 177, 6-(3,3-difluorocyclobutane-1-carboxamido)-N-(methyl-d3)-4-((3-(methylsulfonyl)pyridin-2-yl)amino)pyridazine-3-carboxamide] |
| 12 | [2H]C([2H])([2H])NC(=O)c1nnc(Nc2ccc(F)cn2)cc1Nc1ncccc1S(C)(=O)=O [Example 1, 6-((5-fluoropyridin-2-yl)amino)-N-(methyl-d3)-4-((3-(methylsulfonyl)pyridin-2-yl)amino)pyridazine-3-carboxamide] |
| 2 | [2H]C([2H])([2H])NC(=O)c1nnc(Nc2ccc(C(C)(C)O)cn2)cc1Nc1ncccc1S(C)(=O)=O [Example 13, 6-((5-(2-hydroxypropan-2-yl)pyridin-2-yl)amino)-N-(methyl-d3)-4-((3-(methylsulfonyl)pyridin-2-yl)amino)pyridazine-3-carboxamide] |
| 56 | CNC(=O)c1nnc(Nc2ccc(OC)nn2)cc1Nc1ncccc1S(C)(=O)=O [Example 209, 6-((6-methoxypyridazin-3-yl)amino)-N-methyl-4-((3-(methylsulfonyl)pyridin-2-yl)amino)pyridazine-3-carboxamide] |
| 132 | [2H]C([2H])([2H])NC(=O)c1nnc(NC(=O)[C@@H]2C[C@H]2C(F)(F)F)cc1Nc1ncccc1S(C)(=O)=O [Example 176, N-(methyl-d3)-4-((3-(methylsulfonyl)pyridin-2-yl)amino)-6-((1R,2R)-2-(trifluoromethyl)cyclopropane-1-carboxamido)pyridazine-3-carboxamide] |
